{"source": "patent US9242997B2", "about": "“Tricyclic pyrazole sulphonamide compunds and methods of making and using same” (Zafgen, Inc., priority 2011, dated 2016)"}
{"target": "T1, Human recombinant MetAP2 (Homo sapiens, UniProt P50579)", "T1 construct": "made in house; host or cells: Sf9 insect cells", "T1 sequence (P50579 whole entry)": "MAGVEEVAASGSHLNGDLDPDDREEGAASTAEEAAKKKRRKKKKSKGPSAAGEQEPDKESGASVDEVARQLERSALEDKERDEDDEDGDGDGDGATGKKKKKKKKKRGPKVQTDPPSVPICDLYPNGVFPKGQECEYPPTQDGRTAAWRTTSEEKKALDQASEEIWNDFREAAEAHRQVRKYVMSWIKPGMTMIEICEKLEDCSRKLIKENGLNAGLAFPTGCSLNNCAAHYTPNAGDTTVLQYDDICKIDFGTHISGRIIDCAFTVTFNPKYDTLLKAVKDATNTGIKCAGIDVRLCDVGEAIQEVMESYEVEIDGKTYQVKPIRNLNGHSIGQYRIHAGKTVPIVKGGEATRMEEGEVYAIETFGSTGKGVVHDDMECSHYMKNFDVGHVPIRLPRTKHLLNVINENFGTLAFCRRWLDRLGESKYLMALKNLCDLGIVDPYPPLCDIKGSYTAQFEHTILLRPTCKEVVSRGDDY", "assay": "recombinant human MetAP2 inhibition assay (MAS substrate, amino acid oxidase/Amplex red fluorescence)", "assay_type": "biochemical", "conditions": "manganese enzyme, 30 minutes at 25° C., pH 7.5, 0.75 mM MAS substrate, 1% DMSO", "description": "Compounds are tested for their capacity to inhibit recombinant human MetAP2 activity using the following assay.\nHuman recombinant MetAP2 expressed in Sf9 cells followed by affinity purification and EDTA treatment to remove endogenous active site cation was dialysed against MnCl2 to produce the manganese enzyme used in the assay. The assay was carried out for 30 minutes at 25° C. in 50 mM HEPES buffer containing 100 mM NaCl, pH 7.5 the presence of 0.75 mM Methionine-Alanine-Serine (MAS) substrate and 50 μg/ml amino acid oxidase using a dilution of purified MetAP2 giving>3-fold signal: noise. Cleavage of the substrate by MetAP2 and oxidation of free methionine by amino acid oxidase was detected and quantified using fluorescence generated by Amplex red (10-acetyl-3,7-dihydroxyphenoxazine) in combination with horseradish peroxidase which detects H2O2 released during the oxidation step. The fluorescent signal was detected using a multiwell fluorimeter. Compounds were diluted in DMSO prior to addition to assay buffer, the final DMSO concentration in the assay being 1%.\nThe IC50 is defined as the concentration at which a given compound achieves 50% inhibition of control. IC50 values are calculated using the XLfit software package (version 2.0.5).", "units": {"IC50": "nM"}}
{"molecule": "CCN(CC)C/C=C\\c1cc(F)ccc1S(=O)(=O)Nc1ccc2c(ccn3nccc23)c1C(=O)O", "note": "[Example 1, 8-[2-((Z)-3-Diethylaminoprop-1-enyl)-4-fluorobenzenesulfonylamino]-pyrazolo[5,1-a]isoquinoline-7-carboxylic acid]", "IC50": "< 50"}
{"molecule": "CCN(CC)C/C=C\\c1cc(F)ccc1S(=O)(=O)Nc1ccc2c(c1C(=O)O)OCc1cccn1-2", "note": "[Example 2, 7-[2-((Z)-3-Diethylaminoprop-1-enyl)-4-fluorobenzenesulfonylamino]-4H-benzo[b]pyrrolo[1,2-d][1,4]oxazine-6-carboxylic acid]", "IC50": "< 50"}
{"molecule": "CCN(CC)C/C=C\\c1cc(F)ccc1S(=O)(=O)Nc1ccc2c(c1C(=O)O)CCn1nccc1-2", "note": "[Example 3, 8-[2-((Z)-3-Diethylaminoprop-1-enyl)-4-fluorobenzenesulfonylamino]-5,6-dihydropyrazolo[5,1-a]isoquinoline-7-carboxylic acid]", "IC50": "50 to 500"}
{"molecule": "CCN(CC)C/C=C\\c1cc(F)ccc1S(=O)(=O)Nc1ccc2c(c1C(=O)O)OCc1nccn1-2", "note": "[Example 4, 7-[2-((Z)-3-Diethylaminoprop-1-enyl)-4-fluorobenzenesulfonylamino]-4H-5-oxa-3,9b-diazacyclopenta[a]naphthalene-6-carboxylic acid]", "IC50": "< 50"}
